Assay results taken from article PMC11990524, “Design and Synthesis of Novel 6-(Substituted phenyl)-[1,3]dioxolo[4′,5′:4,5]benzo[1,2-d]thiazole Compounds as Tyrosinase Inhibitors: In Vitro and In Vivo Insights” (Molecules, 2025).
Read-outs that look alike come from different tables or passages of the source.

What was measured:
[1] = target: T1, B16F10 cellular tyrosinase (Mus musculus, UniProt P11344); assay: Cellular tyrosinase activity assay using B16F10 cells; format: cell-based, murine; conditions: 1, 2, and 5 μM, IBMX 200 μM plus α-MSH 1 μM, 72 h
T1 construct: endogenous in cells; host or cells: B16F10 murine cells, stimulated with α-MSH and IBMX
T1 sequence (P11344 19-533): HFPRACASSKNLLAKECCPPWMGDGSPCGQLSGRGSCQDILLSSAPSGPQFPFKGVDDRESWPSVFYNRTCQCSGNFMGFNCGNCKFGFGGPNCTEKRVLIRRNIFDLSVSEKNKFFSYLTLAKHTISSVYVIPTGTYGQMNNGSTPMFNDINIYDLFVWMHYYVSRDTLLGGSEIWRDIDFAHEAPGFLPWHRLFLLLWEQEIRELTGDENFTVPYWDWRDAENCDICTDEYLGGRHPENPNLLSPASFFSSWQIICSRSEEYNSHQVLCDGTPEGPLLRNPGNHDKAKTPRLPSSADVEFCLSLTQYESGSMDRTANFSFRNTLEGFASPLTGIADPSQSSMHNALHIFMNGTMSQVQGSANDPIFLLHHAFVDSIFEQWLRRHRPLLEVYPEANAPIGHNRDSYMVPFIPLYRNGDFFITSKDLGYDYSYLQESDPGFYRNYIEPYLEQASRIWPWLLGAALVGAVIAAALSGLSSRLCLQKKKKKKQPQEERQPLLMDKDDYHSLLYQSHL
Experimental: After 72 h of incubation, the B16F10 cellular tyrosinase inhibitory activity was evaluated by measuring the optical density at 475 nm.
To evaluate the effect of compounds 5 and 9 on cellular tyrosinase activity, B16F10 cells (5000 cells/well) were inoculated in a 6-well plate and cultured for 24 h under the same conditions as the cell culture. […] The plate was incubated in a 5% CO2 incubator maintained at 37 °C for 1 h. Each well was treated with stimulators (1 μM α-MSH [Alomone Labs^TM, Jerusalem, Israel] and 200 μM IBMX [Thermo Fisher, Rockford, IL, USA]) and incubated in a CO2 incubator for 72 h. The cells were rinsed twice with PBS (pH 7.4) and treated with 100 μL lysis buffer solution consisting of Triton X-100 (1%; 5 μL), phosphate buffer (50 mM; pH 6.5; 90 μL), and phenylmethanesulfonyl fluoride (2 mM; 5 μL). The lysates were placed for 30 min at −80 °C. After centrifuging at 10,000 g and 4 °C for 10 min, an aliquot (80 μL) of the supernatants was transferred to each well of a 96-well plate, and 20 μL of L-dopa solution (10 mM) was added to each well. The optical density at 475 nm was recorded every min for 10 min to determine cellular tyrosinase activity.

[2] = target: T2, mushroom tyrosinase (Agaricus bisporus, UniProt C7FF04); assay: Kinetic analysis of mushroom tyrosinase (Lineweaver–Burk and Dixon plots); format: biochemical; design: purchased Sigma-Aldrich; conditions: substrate L-dopa
Experimental: Therefore, the mechanism of inhibition was investigated using mushroom tyrosinase. At various concentrations of L-dopa, the initial dopachrome production rate was investigated at four different concentrations of 5 (0, 20, 40, and 80 μM) and 9 (0, 0.5, 1.0, and 2.0 μM).
The Lineweaver–Burk plot for each compound was re-plotted by plotting the reciprocal of the initial dopachrome production rate vs. the […] to create a Dixon plot for each compound (Figure 3C,D for compounds 5 and 9, respectively). […] The absolute value of the x-coordinate of the merged point represents the inhibition constant (Ki), which indicates the potency of the inhibitor.
Kinetic analysis of mushroom tyrosinase was performed by recording the initial dopachrome formation rate in the presence of compounds 5 and 9. […] The optical density of dopachrome production in each well was recorded at 475 nm at 5 min intervals for 30 min. Compounds were tested at 80, 40, 20, and 0 μM for 5 and at 2, 1.0, 0.5, and 0 μM for 9, respectively. Potting the inverse of the substrate concentration vs. the reciprocal of the initial dopachrome production rate generated Lineweaver–Burk plots.
Target sequence in this assay (C7FF04 1-392): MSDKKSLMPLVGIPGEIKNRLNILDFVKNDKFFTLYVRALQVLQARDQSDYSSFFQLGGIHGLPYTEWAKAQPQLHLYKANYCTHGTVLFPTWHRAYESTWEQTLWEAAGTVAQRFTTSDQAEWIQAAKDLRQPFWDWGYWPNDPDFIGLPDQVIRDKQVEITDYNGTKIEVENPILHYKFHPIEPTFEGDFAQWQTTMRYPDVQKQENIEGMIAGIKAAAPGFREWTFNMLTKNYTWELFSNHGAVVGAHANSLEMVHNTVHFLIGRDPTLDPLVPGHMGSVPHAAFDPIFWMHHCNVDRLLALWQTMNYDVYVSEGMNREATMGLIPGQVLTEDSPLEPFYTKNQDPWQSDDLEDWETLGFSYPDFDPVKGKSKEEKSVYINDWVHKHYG

[3] = target: T2, mushroom tyrosinase; assay: Mushroom tyrosinase inhibitory activity assay (L-dopa or L-tyrosine as substrate); format: biochemical; conditions: 50 μM, read-out: Inhibition (%, Mean ± SEM) at 50 μM (converted)
Experimental: In the inhibition experiments, L-dopa and L-tyrosine were used as enzyme substrates.
The plate was incubated at 37 °C for 30 min, and absorbance of dopachrome formation was recorded spectrophotometrically at 475 nm using a VersaMax® Elisa (VE) microplate reader (Molecular Devices, San Jose, CA, USA) to determine tyrosinase inhibition activity. A VE microplate reader was used in all subsequent experiments to measure optical density. All experiments were carried out independently three times.
Target sequence in this assay (C7FF04 2-392): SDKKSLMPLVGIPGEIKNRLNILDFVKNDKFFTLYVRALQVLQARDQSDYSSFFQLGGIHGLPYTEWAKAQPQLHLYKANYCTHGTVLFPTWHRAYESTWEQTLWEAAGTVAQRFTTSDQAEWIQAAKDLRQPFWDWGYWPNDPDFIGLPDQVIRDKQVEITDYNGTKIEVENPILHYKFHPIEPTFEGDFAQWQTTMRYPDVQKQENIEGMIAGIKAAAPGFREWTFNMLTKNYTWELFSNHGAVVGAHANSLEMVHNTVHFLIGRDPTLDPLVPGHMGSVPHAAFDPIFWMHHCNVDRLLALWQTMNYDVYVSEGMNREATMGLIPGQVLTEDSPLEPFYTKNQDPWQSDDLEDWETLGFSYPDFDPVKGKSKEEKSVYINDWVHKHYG

[4] = target: T3, B16F10 cell tyrosinase (Mus musculus, UniProt P11344); assay: In situ cellular tyrosinase activity assay using B16F10 cells; format: cell-based, murine; conditions: 1, 2, and 5 μM, IBMX plus α-MSH, 72 h, L-dopa 2 h
T3 construct: endogenous in cells; host or cells: B16F10 murine cells, stimulated with α-MSH and IBMX
T3 sequence (P11344 19-533): T1 sequence (P11344 19-533)
Experimental: After 72 h of incubation, the cells were treated with an excessive amount of L-dopa for 2 h, and then the melanin-stained cells were photographed, and the pigmented areas of the cells were determined using an ATTO CS Analyzer (ATTO, Tokyo, Japan).
B16F10 (3 × 10^3 cells/well) cells in a 24-well plate were incubated for 24 h in a 5% CO2 incubator maintained at 37 °C. […] Stimulators (α-MSH and IBMX; 1 μM and 200 μM, respectively) were exposed to cells 1 h after treatment with the test sample, and the cells were incubated for 72 h in a 5% CO2 incubator. The cells were fixed for 40 min using paraformaldehyde solution (4%) (Sigma-Aldrich, St. Louis, MO, USA), washed with PBS (pH 7.4), and permeabilized for 2 min using Triton X-100 (0.1%). After washing twice with PBS, each well was exposed to L-dopa solution (500 μL; 2 mM). After incubation for 2 h, images of the cells stained with excess melanin were obtained using a camera connected to a microscope (Motic, Hong Kong).

[5] = test system: B16F10 cells; assay: Cellular melanin content assay using B16F10 cells; format: cell-based, murine
Experimental: After 72 h of incubation, the melanin content was evaluated by measuring the optical density at 405 nm.
The plate was incubated in a CO2 incubator for 1 h. Each well was treated with stimulators (α-MSH and IBMX; 1 μM and 200 μM, respectively) and incubated in a CO2 incubator for 72 h. The incubated cells were rinsed twice with PBS (pH 7.4). 1N–NaOH solution (100 μL) was added to each well and warmed at 60 °C for 1 h. The lysates were transferred to each well of a 96-well plate. The optical density was measured at 405 nm.

[6] = test system: HaCaT cells; assay: Cytotoxicity assay on HaCaT cells (EZ-Cytox); format: cell-based, human; conditions: 1, 2, 5, 10, and 20 μM, 24 h
Experimental: In addition to melanocytes, keratinocytes are the primary cells present in the epidermis. […] Each compound was treated at concentrations of 0, 1, 2, 5, 10, and 20 μM for 24 h, and cell viability was measured using the EZ-Cytox solution.
The effect of compounds 5 and 9 on cell viability of HaCaT and B16F10 cells was assessed using an EZ-Cytox solution (EZ-1000®, DoGenBio, Seoul, Republic of Korea). HaCaT (5 × 10^3 cells/well) and B16F10 (1 × 10^3 cells/well) cells were seeded in a 96-well plate, respectively, and cultured for 24 h under the same conditions as the cell culture. Each well was treated with 5 and 9 at 0, 1, 2, and 5 μM for B16F10 cells and 0, 1, 2, 5, 10, and 20 μM for HaCaT cells. The plates were incubated for 72 h for B16F10 cells and 24 h for HaCaT cells under a CO2 incubator. Each well was treated with the EZ-Cytox solution (10 μL), and the plate was left for 2 h under a CO2 incubator. Well optical density was measured at 450 nm to determine cytotoxicity.

[7] = test system: zebrafish embryos; assay: In vivo pigmentation assay using zebrafish embryos; design: species or system Danio rerio; conditions: kojic acid 20 mM; treated at 24 hpf, measured at 72 hpf
Experimental: To identify whether the synthesized compounds could exert anti-melanogenic effects in vivo, in vivo experiments were performed using zebrafish embryos. Freely obtained zebrafish embryos were transferred to a culture dish containing an E3-MB solution and incubated at 28 °C until use. For a preliminary experiment, zebrafish embryos were dechorionated using Pronase® (Sigma-Aldrich) at 20 h post fertilization (hpf), and each compound at 0.1 mM was exposed to five zebrafish embryos in E3 solution at 24 hpf. The depigmentation abilities were compared at 72 hpf to select the compounds used in the main experiments. From the preliminary experiments (n = 1), five compounds (2, 5, and 11–13) were selected for the main depigmentation experiments (n = 3). As in the preliminary experiment, the obtained zebrafish embryos were dechorionated at 20 hpf, and each selected compound (0.1 mM) was administered to six zebrafish embryos in the E3 solution at 24 hpf. The pigmentation of zebrafish larvae was photographed and measured in dorsal and lateral views at 72 hpf using an ATTO CS analyzer (ATTO, Tokyo, Japan). […] Pigmentation of zebrafish larvae was imaged using the SMZ745T microscope (Nikon, Tokyo, Japan), and the pigmented areas were measured in dorsal and lateral views at 72 hpf using an ATTO CS analyzer (ATTO, Tokyo, Japan).

SMILES | cellular tyrosinase activity [1] | Ki ([2]; Dixon plot, read-out: inhibition constant (Ki)) | mechanism of inhibition ([2]; Lineweaver–Burk plot) | inhibition at 50 µM ([3]; substrate L-dopa) | inhibition at 50 µM ([3]; substrate L-tyrosine) | number of cells strongly stained with melanin (in situ tyrosinase) [4] | melanin content ([5]; 1, 2, and 5 μM, IBMX 200 μM plus α-MSH 1 μM, 72 h) | melanin production inhibition compared with kojic acid ([5]; same concentration (5 μM)) | cytotoxicity (cell viability) [6] | depigmentation effect on zebrafish larvae [7]
Oc1ccc(-c2nc3cc4c(cc3s2)OCO4)cc1 [Compound 5, 4-([1,3]Dioxolo[4′,5′:4,5]benzo[1,2-d]thiazol-6-yl)phenol] | significantly decreased the cellular tyrosinase activity | 46 µM | competitive inhibitors | 63.3% | 61.4% | evidently reduced the number of cells strongly stained with melanin | significantly reduced the stimulator-induced melanin contents | inhibited melanin production more potently than kojic acid | None of the compounds revealed significant cytotoxicity up to 20 μM | 
O=c1cc(CO)occ1O [kojic acid] |  |  |  |  |  |  |  |  |  | significant depigmentation effect
